Laboratory results reported in patent publication US20240425478A1, “CYCLOPENTYLPYRAZOLE CDK2 INHIBITORS” (Genentech, Inc., priority 2021, published 2024).
Where two headings read alike, the source gives them in different places.

Columns and labels:
[1] = target: T1, Cyclin Dependent Kinase 2/Cyclin E1 (CDK2-cycE1) (Homo sapiens, UniProt P24941); test: CDK2-cycE1 TR-FRET (LANCE) enzyme assay; assay type: biochemical; conditions: for FS CDK1/CDK2 / FS CDK4/CDK2: fold selectivity; for increased fold-selectivity CDK1/CDK2 over Comparator C: (+) sign after FS CDK1/CDK2; for increased fold-selectivity CDK4/CDK2 over Comparator C: (+) sign after FS CDK4/CDK2;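 on improvement in potency against CDK2 (Ki) over Comparator C: fold lower CDK2 Ki than comparator c (Ki 0.032 µM)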
T1 construct: purchased ProQinase 0050-0055-1
Procedure, shortened: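 Kinase reaction buffer: 50 mM HEPES pH 7.5, 10 mM MgCl2, 2 mM TCEP, 0.05% BGG, 0.01% Brij 35, with 30 min compound–enzyme pre-incubation.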

[2] = test system: HCT116 cells; test: p-H3 HCT-116 mitotic release cell proliferation assay (cellular CDK1); assay type: cell-based; conditions: Homo sapiens, HCT-116; Table O, cellular assay; read-out: CDK1 p-H3 IC50
Description: Inhibition of cellular CDK1 determined by release of cells from nocodazole-induced mitotic arrest, as measured by decrease in phospho-Histone H3. Histone H3 (Ser 10) level is detected in cell lysates by producing a Fluorescence Resonance Energy Transfer (FRET) signal between two antibodies, Phospho-Histone H3 Cryptate (acting as the donor) and Phospho-Histone H3 d2 (acting as the acceptor).
Plates are allowed to rest overnight at 37° C./5% CO2. The following morning, nocodazole is diluted in complete medium, and 5 μL is added to each test well and positive control well for a final concentration of 500 nM. Plates are then incubated for 16 hours at 37° C./5% CO2. […] 10 μL of diluted compound is then transferred to the cell plate (final DMSO concentration 0.1%). Cell plates are then incubated for 4 hours in 37° C. 5% CO2. A cell lysis buffer is prepared on ice using reagents from the Phospho-Histone H3 (Ser10) cellular kit (Cisbio-64HH3PEG). Supernatant is discarded from the cell plate and 80 μL of the supplemented cell lysis buffer (1:99 dilution of the Blocking Reagent and the 1× cell lysis buffer provided in the kit) is added to each of the experimental wells. The cell lysis reaction is allowed to proceed at room temperature while shaking vigorously for 30 minutes. The 384-well HTRF (Homogeneous Time Resolved Fluorescence) plate is prepared by adding 2 μL of each diluted antibody (Phospho-Histone H3 Cryptate antibody and Phospho-Histone H3 d2 antibody diluted 19:1 in a detection buffer) and 12 μL of the supplemented cell lysis buffer to each well in the HTRF plate. 4 μL of the cell lysate is added to the prepared HTRF plate which is then sealed and the reaction is allowed to proceed for a minimum of 2 hours at room temperature.

[3] = target: T2, Cyclin Dependent Kinase 4/Cyclin D3 (CDK4-cycD3) (Homo sapiens, UniProt P11802); test: CDK4-cycD3 TR-FRET (LANCE) enzyme assay; assay type: biochemical; conditions: Table O, enzymatic assay
T2 construct: purchased Carna Biosciences 04-105
T2 sequence (P11802 whole entry): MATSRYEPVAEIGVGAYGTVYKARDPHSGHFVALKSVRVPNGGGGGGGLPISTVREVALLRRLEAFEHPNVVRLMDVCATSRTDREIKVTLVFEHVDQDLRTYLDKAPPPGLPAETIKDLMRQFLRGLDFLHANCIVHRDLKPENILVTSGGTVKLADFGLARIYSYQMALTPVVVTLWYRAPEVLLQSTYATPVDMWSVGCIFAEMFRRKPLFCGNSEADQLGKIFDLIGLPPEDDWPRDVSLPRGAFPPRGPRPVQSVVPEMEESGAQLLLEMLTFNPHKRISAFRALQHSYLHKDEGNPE
T2 sequence (P30281 whole entry partner): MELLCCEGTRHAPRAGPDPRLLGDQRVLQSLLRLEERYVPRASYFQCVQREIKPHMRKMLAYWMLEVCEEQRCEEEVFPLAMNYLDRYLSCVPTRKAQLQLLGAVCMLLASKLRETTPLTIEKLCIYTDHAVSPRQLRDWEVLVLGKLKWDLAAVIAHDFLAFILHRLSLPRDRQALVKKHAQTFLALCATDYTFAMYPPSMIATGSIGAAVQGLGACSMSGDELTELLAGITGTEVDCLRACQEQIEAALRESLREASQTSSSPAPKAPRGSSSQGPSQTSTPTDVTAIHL
Procedure, shortened: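 Compound dose responses pre-incubated 30 min with enzyme mix in 50 mM HEPES pH 7.5, 10 mM MgCl2, 2 mM TCEP, 0.05% BGG, 0.01% Brij 35. Reaction quenched with EDTA (15 mM final); Eu-anti-phospho-4E-BP1 TR-FRET detection, acceptor/donor ratio. Ki derived by Morrison equation.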

[4] = target: T3, Cyclin Dependent Kinase 1/Cyclin A2 (CDK1-cycA2) (Homo sapiens, UniProt P06493); test: CDK1-cycA2 TR-FRET (Lance) enzyme assay; assay type: biochemical; conditions: Table O, enzymatic assay
T3 construct: purchased ProQinase 0134-0054-1
T3 sequence (P06493 whole entry): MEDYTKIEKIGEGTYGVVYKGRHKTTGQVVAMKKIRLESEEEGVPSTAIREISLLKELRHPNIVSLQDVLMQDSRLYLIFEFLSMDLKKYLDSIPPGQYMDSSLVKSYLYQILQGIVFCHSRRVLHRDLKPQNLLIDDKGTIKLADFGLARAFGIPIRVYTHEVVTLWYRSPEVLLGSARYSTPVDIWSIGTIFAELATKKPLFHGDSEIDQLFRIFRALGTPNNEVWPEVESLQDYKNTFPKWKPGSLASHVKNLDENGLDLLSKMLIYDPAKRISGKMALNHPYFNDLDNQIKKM
T3 sequence (P20248 whole entry partner): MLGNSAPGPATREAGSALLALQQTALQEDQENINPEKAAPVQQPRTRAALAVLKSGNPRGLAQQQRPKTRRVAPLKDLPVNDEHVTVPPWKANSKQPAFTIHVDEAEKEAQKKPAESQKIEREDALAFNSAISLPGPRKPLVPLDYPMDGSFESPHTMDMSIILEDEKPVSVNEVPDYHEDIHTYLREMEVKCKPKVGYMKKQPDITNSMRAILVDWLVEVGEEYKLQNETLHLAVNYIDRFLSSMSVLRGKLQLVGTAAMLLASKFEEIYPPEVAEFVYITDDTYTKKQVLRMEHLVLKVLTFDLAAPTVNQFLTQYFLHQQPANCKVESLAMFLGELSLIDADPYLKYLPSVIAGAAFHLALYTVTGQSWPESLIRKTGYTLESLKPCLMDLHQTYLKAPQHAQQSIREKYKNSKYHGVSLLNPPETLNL
Procedure, shortened: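 TR-FRET (Lance) detection of phospho-4E-BP1 with a europium-labelled antibody after EDTA quench (15 mM final); signal taken as acceptor/donor ratio. Enzyme and compound were pre-incubated 30 min in HEPES pH 7.5 buffer with MgCl2, TCEP, BGG and Brij 35. Ki derived by Morrison fit.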

[5] = test system: SKOV-3 (ATCC HTB-77); test: SKOV-3 EdU incorporation cell proliferation assay (CDK4/6-dependent); assay type: cell-based; conditions: Homo sapiens, cellular assay, read-out: CDK4/6 SKOV-3 IC50
Procedure, shortened: (§1)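 EdU incorporation (0.5 μM final, last 8 h) follows a 16 h compound exposure at 37 °C, 5% CO2 in RPMI plus 10% FBS, 0.5% DMSO. After fixation, imaging scores EdU-positive cells; a 4-parameter logistic fit of that fraction gives IC50.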

[6] = test system: OVISE (JCRB1043, CCNE1-amplified); test: OVISE EdU incorporation cell proliferation assay (CDK2-dependent); assay type: cell-based; conditions: for IC50: cellular assay, read-out: CDK2 OVISE IC50; for FS SKOV-3/OVISE / FS p-H3/OVISE: fold selectivity; for FS p-H3/OVISE: cellular p-H3 IC50 over OVISE IC50; for increased fold-selectivity SKOV-3/OVISE over Comparator C: (+) sign after FS SKOV-3/OVISE; for improvement in CDK2 OVISE cell potency over Comparator C: in brackets after OVISE IC50, Comparator C 5.5 μM
Procedure, shortened: as §1

[7] = Table O, enzymatic assay, read-out: CDK2 Ki
[8] = Table O, enzymatic CDK1 Ki over CDK2 Ki
[9] = Table O, enzymatic CDK4 Ki over CDK2 Ki
[10] = Table Q, enzymatic assay, read-out: CDK2 Ki
[11] = Table O, cellular SKOV-3 IC50 over OVISE IC50
[12] = read-out: CDK2 activity / potency (enzymatic assay)

Row | SMILES | improvement in potency against CDK2 (Ki) over Comparator C [1] [fold] | Ki [1, 7] [nM] | FS CDK1/CDK2 [1, 8] | FS CDK4/CDK2 [1, 9] | increased fold-selectivity CDK1/CDK2 over Comparator C ([1]; Table Q) | increased fold-selectivity CDK4/CDK2 over Comparator C ([1]; Table Q) | Ki [1, 10] [nM] | FS CDK1/CDK2 ([1]; Table Q, enzymatic) | FS CDK4/CDK2 ([1]; Table Q, enzymatic) | IC50 [2] [nM] | Ki [3] [nM] | Ki [4] [nM] | IC50 ([5]; SK-OV-3, Table O) [nM] | IC50 ([5]; SK-OV-3, Table Q) [nM] | IC50 ([6]; Table O) [nM] | FS SKOV-3/OVISE [6, 11] | FS p-H3/OVISE ([6]; Table O) | increased fold-selectivity SKOV-3/OVISE over Comparator C ([6]; Table Q) | FS SKOV-3/OVISE ([6]; Table Q, cellular) | improvement in CDK2 OVISE cell potency over Comparator C ([6]; Table Q) [fold] | further results
1 | CC(C)NC(=O)O[C@@H]1CC[C@H](c2cc(Nc3cncnc3)n[nH]2)C1 [Example 2B, (1R,3S)-3-(3-(pyrimidin-5-ylamino)-1H-pyrazol-5-yl)cyclopentyl isopropylcarbamate] | 9 | 3.4 | 47 | 120 | (+) (The (+) sign in Table Q signifies desirable increased fold-selectivity of the exemplary compounds over Comparator C) | (+) (The (+) sign in Table Q signifies desirable increased fold-selectivity of the exemplary compounds over Comparator C) | 3.4 | 47 | 120 | 2900 | 390 | 160 | > 20000 | > 20000 | 230 | >70 | 1.1 | (+) (The (+) sign in Table Q signifies desirable increased fold-selectivity of the exemplary compounds over Comparator C) | > 70 | 24 | –
2 | CC(C)NC(=O)O[C@@H]1CC[C@H](c2cc(Nc3ccncn3)n[nH]2)C1 [Example 2C, (1R,3S)-3-(3-(pyrimidin-4-ylamino)-1H-pyrazol-5-yl)cyclopentyl isopropylcarbamate] | 32 | 1.1 | 39 | 86 | (+) (The (+) sign in Table Q signifies desirable increased fold-selectivity of the exemplary compounds over Comparator C) | (+) (The (+) sign in Table Q signifies desirable increased fold-selectivity of the exemplary compounds over Comparator C) | 1.1 | 39 | 86 | 52 | 95 | 43 | 4100 | 4100 | 110 | 37 | 0.47 | (+) (The (+) sign in Table Q signifies desirable increased fold-selectivity of the exemplary compounds over Comparator C) | 37 | 50 | –
3 | CC(C)NC(=O)O[C@@H]1CC[C@H](c2cc(Nc3cnccn3)n[nH]2)C1 [Example 2E, (1R,3S)-3-(3-(pyrazin-2-ylamino)-1H-pyrazol-5-yl)cyclopentyl isopropylcarbamate] | 246 | 0.13 | 65 | 57 | (+) (The (+) sign in Table Q signifies desirable increased fold-selectivity of the exemplary compounds over Comparator C) | (+) (The (+) sign in Table Q signifies desirable increased fold-selectivity of the exemplary compounds over Comparator C) | 0.13 | 65 | 57 | 14 | 7.4 | 8.4 | 130 | 130 | 16 | 8.1 | 0.88 | (+) (The (+) sign in Table Q signifies desirable increased fold-selectivity of the exemplary compounds over Comparator C) | 8.1 | 344 | Ki [1, 12]: ≤ 1 nM
4 | CC(C)NC(=O)O[C@@H]1CC[C@H](c2cc(Nc3ccc(-n4ccnc4)cn3)n[nH]2)C1 [Example 2EE, (1R,3S)-3-(3-((5-(1H-imidazol-1-yl)pyridin-2-yl)amino)-1H-pyrazol-5-yl)cyclopentyl isopropylcarbamate] | 10 | 3.2 | 91 | 59 | (+) (The (+) sign in Table Q signifies desirable increased fold-selectivity of the exemplary compounds over Comparator C) | (+) (The (+) sign in Table Q signifies desirable increased fold-selectivity of the exemplary compounds over Comparator C) | 3.2 | 91 | 59 | 900 | 190 | 290 | 9700 | 9700 | 340 | 29 | 2.6 | (+) (The (+) sign in Table Q signifies desirable increased fold-selectivity of the exemplary compounds over Comparator C) | 29 | 16 | –
5 | COc1nccc(Nc2cc([C@H]3CC[C@@H](OC(=O)NC(C)C)C3)[nH]n2)n1 [Example 2F, (1R,3S)-3-(3-((2-methoxypyrimidin-4-yl)amino)-1H-pyrazol-5-yl)cyclopenty1 isopropylcarbamate] | 78 | 0.41 | 21 | 270 | – | (+) (The (+) sign in Table Q signifies desirable increased fold-selectivity of the exemplary compounds over Comparator C) | 0.41 | 21 | 270 | 76 | 190 | 11 | 3500 | 3500 | 65 | 58 | 1.3 | (+) (The (+) sign in Table Q signifies desirable increased fold-selectivity of the exemplary compounds over Comparator C) | 58 | 84.6 | Ki [1, 12]: ≤ 1 nM
